Each structure is given as a SMILES string.

Test [1] concerns the target T1, PDE5A1 (Homo sapiens, UniProt O76074). Set-up: gene PDE5A.
Test [2] has as its target T1, PDE5A1. Description: radiometric 3H-cGMP hydrolysis assay, inhibition ratio at […]. Type of test: biochemical. More on the design: gene PDE5A; catalytic domain, amino acids 535–860.
Test [3] concerns the target T1, PDE5A1. Nature of the test: radiometric 3H-cGMP hydrolysis assay, dose-response. More on the design: gene PDE5A; catalytic domain, amino acids 535–860. It is filed as biochemical.
The target in another test is PDE11A (Homo sapiens, UniProt Q9HCR9). Description: radiometric 3H-cAMP/3H-cGMP hydrolysis assay, single concentration. Type of test: biochemical.
Chain of PDE11A (Q9HCR9 whole entry): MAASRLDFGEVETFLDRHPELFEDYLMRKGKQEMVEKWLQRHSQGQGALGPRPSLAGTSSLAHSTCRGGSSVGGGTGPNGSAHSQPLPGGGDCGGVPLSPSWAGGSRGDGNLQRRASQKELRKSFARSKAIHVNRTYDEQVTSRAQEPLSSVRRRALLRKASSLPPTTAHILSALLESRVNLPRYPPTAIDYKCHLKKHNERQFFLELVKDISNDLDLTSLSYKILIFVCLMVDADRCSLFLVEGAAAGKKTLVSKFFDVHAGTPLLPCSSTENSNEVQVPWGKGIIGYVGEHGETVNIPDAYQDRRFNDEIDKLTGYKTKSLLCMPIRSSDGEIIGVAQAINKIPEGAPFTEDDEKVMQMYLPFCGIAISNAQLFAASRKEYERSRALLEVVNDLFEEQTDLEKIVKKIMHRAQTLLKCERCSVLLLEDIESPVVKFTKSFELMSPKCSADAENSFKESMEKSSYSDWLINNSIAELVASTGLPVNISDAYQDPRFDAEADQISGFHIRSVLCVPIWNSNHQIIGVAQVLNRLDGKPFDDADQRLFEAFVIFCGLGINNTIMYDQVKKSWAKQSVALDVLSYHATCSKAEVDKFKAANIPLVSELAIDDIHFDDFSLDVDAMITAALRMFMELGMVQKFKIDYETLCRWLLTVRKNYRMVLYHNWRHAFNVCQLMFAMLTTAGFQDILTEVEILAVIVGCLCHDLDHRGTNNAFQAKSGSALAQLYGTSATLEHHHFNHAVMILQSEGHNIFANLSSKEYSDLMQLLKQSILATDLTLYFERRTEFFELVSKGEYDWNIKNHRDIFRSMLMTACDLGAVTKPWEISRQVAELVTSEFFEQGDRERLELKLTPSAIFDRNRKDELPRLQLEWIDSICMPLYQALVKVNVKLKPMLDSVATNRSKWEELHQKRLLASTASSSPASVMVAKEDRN
For another test, the target named is PDE10A (Homo sapiens, UniProt Q9Y233). Described as above. Type of test: biochemical.
Chain of PDE10A (Q9Y233 whole entry): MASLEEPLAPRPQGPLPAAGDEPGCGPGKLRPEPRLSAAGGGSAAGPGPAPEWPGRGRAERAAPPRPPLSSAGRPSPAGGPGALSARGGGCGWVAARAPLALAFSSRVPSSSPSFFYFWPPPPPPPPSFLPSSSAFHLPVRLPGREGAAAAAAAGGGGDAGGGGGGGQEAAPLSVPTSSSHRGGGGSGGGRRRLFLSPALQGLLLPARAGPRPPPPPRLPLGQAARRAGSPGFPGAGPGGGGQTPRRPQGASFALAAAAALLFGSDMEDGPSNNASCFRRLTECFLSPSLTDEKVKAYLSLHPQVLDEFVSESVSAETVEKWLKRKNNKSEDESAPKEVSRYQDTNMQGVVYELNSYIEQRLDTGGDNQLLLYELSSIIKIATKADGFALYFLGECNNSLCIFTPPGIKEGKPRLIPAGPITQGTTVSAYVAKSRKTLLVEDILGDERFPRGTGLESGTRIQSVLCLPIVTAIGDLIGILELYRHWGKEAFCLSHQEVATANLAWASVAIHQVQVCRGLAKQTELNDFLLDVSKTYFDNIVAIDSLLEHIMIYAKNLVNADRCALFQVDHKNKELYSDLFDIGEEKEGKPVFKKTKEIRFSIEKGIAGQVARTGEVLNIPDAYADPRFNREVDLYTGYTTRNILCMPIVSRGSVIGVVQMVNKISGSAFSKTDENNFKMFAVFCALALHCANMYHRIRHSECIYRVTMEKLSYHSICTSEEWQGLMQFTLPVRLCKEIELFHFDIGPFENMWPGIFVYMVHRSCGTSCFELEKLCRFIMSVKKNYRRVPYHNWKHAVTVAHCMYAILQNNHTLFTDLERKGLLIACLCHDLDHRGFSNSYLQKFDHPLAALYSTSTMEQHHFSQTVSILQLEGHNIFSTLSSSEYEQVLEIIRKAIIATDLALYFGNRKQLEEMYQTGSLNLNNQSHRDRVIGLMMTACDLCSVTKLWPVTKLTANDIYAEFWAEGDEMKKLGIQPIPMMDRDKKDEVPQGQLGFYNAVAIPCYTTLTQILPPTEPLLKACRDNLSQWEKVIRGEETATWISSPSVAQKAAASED

For `CCCc1nn(C)c2c(=O)[nH]c(-c3cc(S(=O)(=O)N4CCN(C)CC4)ccc3OCC)nc12` [Sildenafil], the “% inhibition at 10 nM” value on PDE5A1 [1] is reported as > 50. As for `COc1cc([N+](=O)[O-])cc2c1C(=O)Nc1ccccc1O2` [AG-205/40649212], at PDE5A1 [2], the inhibition at 10 µM is > 50%. As for `Cc1sc(N)c2c(=O)oc3c4ccccc4ccc3c12` [AI-898/12177002], on PDE5A1 [3], the IC50 was 1.6 µM. Also, the “% inhibition at 10 μM” value on PDE11A is 63; on PDE10A, 79. `COc1cccc2c1C(=O)c1c(O)ccc(O)c1C2=O` [AG-650/41069360]: at PDE5A1 [2], the inhibition at 10 µM is > 50%. The same measure, in the same setting: to `COc1cccc2c1C(=O)/C(=C/c1ccc(N(C)C)cc1)C2` [AT-051/43410123] belongs > 50%.

On to `CC1(C2CCc3c(O)c4c(c(O)c3C2)C(=O)c2ccccc2C4=O)OCCO1` (stereo not drawn) [AE-508/36401018], for which the inhibition at 10 µM on PDE5A1 [2] was > 50%. Still for that read-out and setting: to `COc1ccc(-c2cc3[nH]nc(N)c3c(=O)[nH]2)cc1` [AR-270/43409613] belongs > 50%.

These data come from publication PMC11820102, “Molecular Dynamics-Assisted Discovery of Novel Phosphodiesterase-5 Inhibitors Targeting a Unique Allosteric Pocket” (Molecules, 2025).
